NC(=O)c1ccc([N+](=O)[O-])cc1
solubility (mole fraction)
Settings | 283.15 K | 288.15 K | 293.15 K | 298.15 K | 303.15 K | 308.15 K | 313.15 K | 318.15 K | 323.15 K | 328.15 K
in DMF | 0.037 | 0.0416 | 0.0492 | 0.0576 | 0.0691 | 0.0811 | 0.0945 | 0.109 | 0.123 | 0.139
in DMSO | – | – | 0.0372 | 0.0425 | 0.0504 | 0.0613 | 0.0747 | 0.0888 | 0.103 | 0.117
in NMP | 0.0418 | 0.0472 | 0.0549 | 0.0653 | 0.0775 | 0.0917 | 0.108 | 0.125 | 0.144 | 0.169
in acetonitrile | 0.000628 | 0.000806 | 0.000994 | 0.00126 | 0.00155 | 0.00195 | 0.00232 | 0.0028 | 0.00332 | 0.00396
in ethanol | 0.00157 | 0.00182 | 0.00231 | 0.00287 | 0.00351 | 0.00429 | 0.00513 | 0.00616 | 0.00735 | 0.00882
in ethyl acetate | 0.00203 | 0.00236 | 0.00286 | 0.00376 | 0.00471 | 0.00583 | 0.00706 | 0.0086 | 0.0103 | 0.0122
in ethylene glycol | 0.00356 | 0.00417 | 0.00496 | 0.006 | 0.00719 | 0.00873 | 0.0102 | 0.0119 | 0.0138 | 0.0164
in isobutanol | 0.000751 | 0.000942 | 0.00119 | 0.0015 | 0.00187 | 0.00233 | 0.00286 | 0.00342 | 0.00403 | 0.00467
in isopropanol | 0.00127 | 0.0015 | 0.00185 | 0.0023 | 0.00286 | 0.00341 | 0.00408 | 0.00492 | 0.00579 | 0.00677
in n-butanol | 0.000449 | 0.000554 | 0.000712 | 0.000907 | 0.00116 | 0.00144 | 0.00176 | 0.00213 | 0.00253 | 0.00301
in n-propanol | 0.00096 | 0.00119 | 0.00151 | 0.00189 | 0.00228 | 0.00276 | 0.00327 | 0.00381 | 0.00447 | 0.00533
in water | 0.000322 | 0.000395 | 0.000498 | 0.0006 | 0.000754 | 0.000924 | 0.00112 | 0.00137 | 0.00161 | 0.00186
